The results in this text go back to US20070010671A1, “Novel quinazoline derivatives and methods of treatment related to the use thereof” (priority 2003, published 2007).

The target of this experiment is MCH receptor (Homo sapiens, UniProt Q99705). The experiment in a line: High throughput functional screening FLIPR/FDSS6000: inhibition of MCH-evoked intracellular Ca2+ changes. The note with it: for class: class by percent of control at 10^-7 M or IC50. It counts as cell-based. The source says: Subsequently, a functional based assay was used to confirm the lead hits, referred to as FLIPR™ (the Fluorometric Imaging Plate Reader) and FDSS6000™ (Functional Drug Screening System). This assay utilized 3 non-endozenous, constitutively active version of the MCH receptor.
The FLIPR and FDSS assays are able to detect intracellular Ca^2+ concentration in cells, which can be utilized to assess receptor activation and determine whether a candidate compound is an, for example, antagonist, inverse agonist or agonist to a Gq-coupled receptor. The concentration of free Ca^2+ in the cytosol of any cell is extremely low, whereas its concentration in the extracellular fluid and endoplasmic reticulum (ER) is very high. Thus, there is a large gradient tending to drive Ca^2+ into the cytosol across both the plasma membrane and ER. The FLIPR™ and FDSS6000™ systems (Molecular Devices Corporation, HAMAMATSU Photonics K.K.) are designed to perform functional cell-based assays, such as the measurement of intracellular calcium for high-throughput screening, The measurement of fluorescent is associated with calcium release upon activation of the Gq-coupled receptors.
Fluorometric Imaging Plate Reader system was used to allow for rapid, kinetic measurements of intracellular fluorescence in 96 well microplates (or 384 well microplates). Simultaneous measurements of fluorescence in all wells can be made by FLIPR or FDSS6000™ every second with high sensitivity and precision. These systems are ideal for measuring cell-based functional assays such as monitoring the intracellular calcium fluxes that occur within seconds after activation of the Gq coupled receptor.
Briefly, the cells are seeded into 96 well at 5.5×10^4 cells/well with complete culture media (Dulbecco's Modified Eagle Medium with 10% fetal bovine serum, 2 mMi L-glutamine, 1 mM sodium pyruvate and 0.5 mg/ml G418, pH 7.4) for the assay next day. On the day of assay, the media is removed and the cells are incubated with 100 μl of loading buffer (4 μM Fluo4-AM in complete culture media containing 2.5 mM Probenicid, 0.5 mg/ml and 0.2% bovine serum albumin) in 5% CO2 incubator at 37° C. for 1 hr. The loading buffer is removed, and the cells are washed with wash buffer (Hank's Balanced Salt Solution containing 2.5 mM Probenicid, 20 mM HEPES, 0.5 mg/ml and 0.2% bovine serum albumm, pH 7.4)). One hundred fifty μl of wash buffer containing various concentrations of test compound is added to the cells, and the cells are incubated in 5% CO2 incubator at 37° C. for 3 min. Fifty μl of wash buffer containing various concentration of MCH are added to each well, and transient changes in [Ca^2+]i evokled bee MCH are monoitored using the FLIPR, or FDSS in 96 shell plates at Ex. 488 nm and Em. 530 nm for 290 second. When antagonist activity of compound is tested, 50 nM of MCH is used.
Use of FLIPR™ and FDSS6000™ can be accomplished by following manufacturer's instruction (Molecular Device Corporation and HAMAMATSU Photonics K.K.).

Setting [1] is: class by percent of control at 10^-7 M or by IC50, read-out: class.

Counter-ions that a name gives are not always drawn. Like-named read-outs stand apart in the source and are kept apart here. Some results are limits rather than exact numbers.

For `COC(=O)[C@H](CCSC)NC(=O)N[C@H]1CC[C@@H](Nc2nc(N(C)C)c3ccccc3n2)CC1` (relative stereo) [compound 41, methyl N-{[(cis-4-{[4-(dimethylamino)quinazolin-2-yl]amino}cyclohexyl)amino]carbonyl}methioninate], the IC50 under setting [1] was less than 50 nM.

Consider `COC(=O)[C@H](Cc1ccccc1)NC(=O)N[C@H]1CC[C@@H](Nc2nc(N(C)C)c3ccccc3n2)CC1` (relative stereo) [compound 62, methyl N-{[(cis-4-{[4-(dimethylamino)quinazolin-2-yl]amino}cyclohexyl)amino]carbonyl}phenylalaninate], for which, under setting [1], the IC50 is less than 50 nM.

In the case of `CC(NC(=O)N[C@H]1CC[C@@H](Nc2nc(N(C)C)c3ccccc3n2)CC1)c1ccccc1` (relative stereo) [compound 65, N-(cis-4-{[4-(dimethylamino)quinazolin-2-yl]amino}cyclohexyl)-N′-(1-phenylethyl)urea], the IC50 under setting [1] was less than 50 nM.

As to `CC(NC(=O)N[C@H]1CC[C@@H](Nc2nc(N(C)C)c3ccccc3n2)CC1)c1ccc(Br)cc1` (relative stereo) [compound 151], the IC50 under setting [1] was less than 50 nM.

Consider `CN(C)c1nc(N[C@H]2CC[C@@H](NC(=S)NCC3CCCO3)CC2)nc2ccccc12` (relative stereo) [compound 196], for which, under setting [1], the IC50 was more than 200 nM.

Regarding `CN(C)c1nc(N[C@H]2CC[C@@H](NC(=S)NC34CC5CC(CC(C5)C3)C4)CC2)nc2ccccc12` (relative stereo) [compound 200], the IC50 under setting [1] is more than 200 nM.

For the compound `CC(NC(=S)N[C@H]1CC[C@@H](Nc2nc(N(C)C)c3ccccc3n2)CC1)c1ccc(F)cc1` (relative stereo) [compound 273, N-(cis-4-{[4-(dimethylamino)quinazolin-2-yl]amino}cyclohexyl)-N′-[1-(4-fluorophenyl)ethyl]thiourea], the class is on record as 2 (Class 2: The value of percent of control at 10^−7 M was from 40% to 60% or the value of IC50 was from 50 nM to 200 nM.).

In the case of `CC(NC(=S)N[C@H]1CC[C@@H](Nc2nc(N(C)C)c3ccccc3n2)CC1)c1ccccc1` (relative stereo) [compound 283], the class is reported as 2 (Class 2: The value of percent of control at 10^−7 M was from 40% to 60% or the value of IC50 was from 50 nM to 200 nM.).

For the compound `CCOC(=O)[C@H](Cc1ccccc1)NC(=O)N[C@H]1CC[C@@H](Nc2nc(N(C)C)c3ccccc3n2)CC1` (relative stereo) [compound 336, ethyl N-{[(cis-4-{[4-(dimethylamino)quinazolin-2-yl]amino}cyclohexyl)amino]carbonyl}phenylalaninate], the class is 1 (Class 1: The value of percent of control at 10^−7 M was less than 40% or the value of IC50 was less than 50 nM.).

Turning to `CN(C)c1nc(N[C@H]2CC[C@@H](NC(=S)NC3CC4CCC3C4)CC2)nc2ccccc12` (relative stereo) [compound 377], the class was 1 (Class 1: The value of percent of control at 10^−7 M was less than 40% or the value of IC50 was less than 50 nM.).

With `CN(C)c1nc(N[C@H]2CC[C@@H](NC(=S)NC3CC4C=CC3C4)CC2)nc2ccccc12` (relative stereo) [compound 378], the class is on record as 3 (Class 3: The value of percent of control at 10^−7 M was more than 60% or the value of IC50 was more than 200 nM.).

As to `CN(C)c1nc(N[C@H]2CC[C@@H](CNC(=O)NC34CC5CC(CC(C5)C3)C4)CC2)nc2ccccc12` (relative stereo) [compound 406], the class is reported as 3 (Class 3: The value of percent of control at 10^−7 M was more than 60% or the value of IC50 was more than 200 nM.).

For `CCOC(=O)[C@H](CC(C)C)NC(=O)NC[C@H]1CC[C@@H](Nc2nc(N(C)C)c3ccccc3n2)CC1` (relative stereo) [compound 435, ethyl N-({[(cis-4-{[4-(dimethylamino)quinazolin-2-yl]amino}cyclohexyl)methyl]amino}carbonyl)leucinate], the class is recorded as 1 (Class 1: The value of percent of control at 10^−7 M was less than 40% or the value of IC50 was less than 50 nM.).

Regarding `COC(=O)[C@H](CCSC)NC(=O)NC[C@H]1CC[C@@H](Nc2nc(N(C)C)c3ccccc3n2)CC1` (relative stereo) [compound 442, methyl N-({[(cis-4-{[4-(dimethylamino)quinazolin-2-yl]amino}cyclohexyl)methyl]amino}carbonyl)methioninate], the class is on record as 2 (Class 2: The value of percent of control at 10^−7 M was from 40% to 60% or the value of IC50 was from 50 nM to 200 nM.).

For the compound `CC(NC(=O)NC[C@H]1CC[C@@H](Nc2nc(N(C)C)c3ccccc3n2)CC1)c1cccc2ccccc12` (relative stereo) [compound 461], the class is 3 (Class 3: The value of percent of control at 10^−7 M was more than 60% or the value of IC50 was more than 200 nM.).

Regarding `COC(=O)[C@H](Cc1ccccc1)NC(=O)NC[C@H]1CC[C@@H](Nc2nc(N(C)C)c3ccccc3n2)CC1` (relative stereo) [compound 462], the class is recorded as 3 (Class 3: The value of percent of control at 10^−7 M was more than 60% or the value of IC50 was more than 200 nM.).

With `CC(NC(=O)NC[C@H]1CC[C@@H](Nc2nc(N(C)C)c3ccccc3n2)CC1)c1ccccc1` (relative stereo) [compound 465, N-[(cis-4-{[4-(dimethylamino)quinazolin-2-yl]amino}cyclohexyl)methyl]-N′-(1-phenylethyl)urea], the class is 2 (Class 2: The value of percent of control at 10^−7 M was from 40% to 60% or the value of IC50 was from 50 nM to 200 nM.).

For `CC(NC(=O)NC[C@H]1CC[C@@H](Nc2nc(N(C)C)c3ccccc3n2)CC1)c1ccc(Br)cc1` (relative stereo) [compound 575], the class is listed as 3 (Class 3: The value of percent of control at 10^−7 M was more than 60% or the value of IC50 was more than 200 nM.).

`CN(C)c1nc(N[C@H]2CC[C@@H](CNC(=S)NCC3CCCO3)CC2)nc2ccccc12` (relative stereo) [compound 620]: the class is reported as 2 (Class 2: The value of percent of control at 10^−7 M was from 40% to 60% or the value of IC50 was from 50 nM to 200 nM.).

With `CN(C)c1nc(N[C@H]2CC[C@@H](CNC(=S)NC34CC5CC(CC(C5)C3)C4)CC2)nc2ccccc12` (relative stereo) [compound 624], the class was 3 (Class 3: The value of percent of control at 10^−7 M was more than 60% or the value of IC50 was more than 200 nM.).

For `CC(NC(=S)NC[C@H]1CC[C@@H](Nc2nc(N(C)C)c3ccccc3n2)CC1)c1ccc(F)cc1` (relative stereo) [compound 697], the class is given as 2 (Class 2: The value of percent of control at 10^−7 M was from 40% to 60% or the value of IC50 was from 50 nM to 200 nM.).

Take `CC(NC(=S)NC[C@H]1CC[C@@H](Nc2nc(N(C)C)c3ccccc3n2)CC1)c1ccccc1` (relative stereo) [compound 707]: the class is recorded as 3 (Class 3: The value of percent of control at 10^−7 M was more than 60% or the value of IC50 was more than 200 nM.).

With `CCOC(=O)[C@H](Cc1ccccc1)NC(=O)NC[C@H]1CC[C@@H](Nc2nc(N(C)C)c3ccccc3n2)CC1` (relative stereo) [compound 756], the class was 3 (Class 3: The value of percent of control at 10^−7 M was more than 60% or the value of IC50 was more than 200 nM.).

For `CN(C)c1nc(N[C@H]2CC[C@@H](CNC(=S)NC3CC4CCC3C4)CC2)nc2ccccc12` (relative stereo) [compound 798], the IC50 under setting [1] lay in the range of 50 to 200 nM.

With `CN(C)c1nc(N[C@H]2CC[C@@H](CNC(=S)NC3CC4C=CC3C4)CC2)nc2ccccc12` (relative stereo) [compound 799, N-bicyclo[2.2.1]hept-5-en-2-yl-N′-[(cis-4-{[4-(dimethylamino)quinazolin-2-yl]amino}cyclohexyl)methyl]thiourea], the IC50 under setting [1] is 50 to 200 nM.

Consider `COc1ccc(NC(=O)N[C@H]2CC[C@@H](Nc3nc(N(C)C)c4ccccc4n3)CC2)cc1OC` [Example 1, 1-(3,4-Dimethoxy)-phenyl)-3-[cis-4-(4-dimethylamino-quinazolin-2-ylamino)-cyclohexyl-urea hydrochloride], for which the IC50 (antagonist activity, 50 nM of MCH, FLIPR or FDSS, read-out: IC50) turned out to be 13 nM.
